This note sets out measurements from patent US11352604B2, “Method of making cardiomyocytes from human pluripotent cells” (Wisconsin Alumni Research Foundation, priority 2016, dated 2022).

Holding throughout (assay type): cell-based, human
Experiment [1] concerns hPSC-CMs. Nature of the experiment: Cardiomyocyte yield and purity in GiWi differentiation. The settings on record: day 30, pI:C alone vs untreated. The procedure: To differentiate cardiomyocytes from hPSCs, the small molecule temporal modulation of the Wnt pathway (GiWi) monolayer protocol was used essentially as previously described (Lian et al., 2012). Human embryonic or induced pluripotent stem cells were dissociated with Versene (Thermo Fisher Scientific) for 6 minutes at 37° C., pipetted up and down 40 times, counted with a hemocytometer, spun down at 100×g for 5 minutes, and resuspended and seeded for differentiation at 1.5 million cells per well in 6 well plates or 0.4 million per well in 12 well plates in mTeSR® on stem-cell verified Matrigel® (WiCell) containing 10 μM Y-27632 ROCK-inhibitor (Tocris). After four days in mTeSR® (WiCell), at which point cells grew to 100 percent confluence, medium was switched to RPMI supplemented with B27 supplement not containing insulin (Thermo Fisher Scientific) and containing 12 μM of the Wnt agonist CHIR99021 (Tocris) for exactly 24 hours. Media was then changed to RPMI supplemented with B27 not containing insulin for exactly 48 hours. Then medium was then switched at day 3 to RPMI supplemented with B27 not containing insulin and containing 5 μM IWP2 (Tocris). At day 5, media was switched to RPMI supplemented with B27 not containing insulin for two days. At day 7 and every three days afterward, medium was replaced with RPMI supplemented with B27 containing insulin (Thermo Fisher Scientific). […]

Experiment [2] deals with hPSC-CMs. Briefly: Flow cytometry of differentiated cells (cTnT, MLC2v). The procedure:
Flow cytometry for internal antigens was done on dissociated cells using the same blocking, washing, secondary antibodies, and buffers as internal antigen immunofluorescence described above using mlc2v (proteintech, 1:100) and cardiac troponin T (Thermo Fisher Scientific, 1:200) in the 19-9-11 iPS cell line. Between washes and staining steps, dissociated cells were pelleted at 1,100 g for 5 minutes. Blocking and antibody staining steps were done in a volume of 100 μL, and washing steps in 1 mL in Eppendorf™ tubes.
Flow cytometry for live cell surface antigens was done on dissociated cells of the 19-9-11 iPS cell line with Thy1 biotin (1:200 Biolegend, with Life Technologies streptavidin direct conjugate at 1:1000) and SIRPα (1:200, Biolegend) in K20 and then analyzed at the UWCCC Flow Cytometry Laboratory using a BD LSRII Fortessa flow cytometer. For progenitor flow experiments, cells were dissociated as above for progenitor dissociation, centrifuged at 200×g, subjected to FACS to concentrate cells, and resuspended in 100 μL, of K2 media+rockI/Jag1 PE, BD Biosciences (1:20); Notch2 APC R&D Biosystems (1:10) and analyzed on either a BD FACSariaII cell sorter or BD LSRII Fortessa flow cytometer.
(In flow cytometry, cells or beads pass a laser one at a time.)

For experiment [3], the system named is hPSC-CMs. Nature of the experiment: Seahorse oxygen consumption rate. The settings on record: cardiomyocytes from treated vs untreated progenitors. As for the experimental part:
After hPSC-CM dissociation of day 40-70 lactate-purified hPSC-CMs from the H9 cTnT-GFP reporter cell line, 25,000 cells per well were replated into Synthemax®-coated wells of Seahorse XF96 V3 PS cell culture plates (Agilent). Plates were analyzed for basal and maximal oxygen consumption rate with a Seahorse XF cell mito stress kit according to the manufacturer's instructions (Agilent) using concentrations of 1 μM oligomycin, 2 μM FCCP, and 0.5 μM Rotenone/antimycin A. Purity was determined by dissociating seahorse wells after analysis and doing live cell flow cytometry for cTnT-GFP. To directly compare data between plate runs/biological replicates, the fold change between hPSC-CMs from pI:C− and pI:C+ progenitors was computed for each sample's maximal and basal oxygen consumption rate normalized to total protein estimated after cell lysis in EBC buffer. Log2 of the fold changes was tested for significance in a one-sample t test against a null hypothesis of 0.

Experiment [4] deals with hPSC-CMs. Nature of the experiment: Cardiomyocyte yield from dissociated and replated progenitors. The note with it: primed vs untreated. As for the experimental part:
For dissociation of day 5 cells (for destructive analyses or live cell replating experiments), progenitors were dissociated with Versene (Thermo Fisher Scientific) for 10 minutes at 37° C., pipetted up and down 40 times, and then neutralized 1:1 v/v versene solution with “K20” medium (DMEM/F12 with 1×NEAA, 1× Glutamine, 0.1 mM (3-mercaptoethanol, and 20% Knockout Serum Replacer by volume, all Thermo Fisher Scientific). For destructive analyses, pellets were made by centrifugation at 1.1×1000 g for 5 minutes, aspiration of medium supernatant, snap-freezing in liquid nitrogen, and kept at −80° C. for until pellet lysis for DNA, protein, or RNA isolation.
For replating of progenitors and microtissue formation, after neutralization and cell counting, 0.8 million day-5 progenitors per well were spun down at 100×g as above and resuspended and plated in 1 mL K20 with 10 μM Y-27632 ROCK-inhibitor (Tocris) into Synthemax® II-SC coated 12 well plates (Corning). Media was then changed daily in 2 mL of “K2” (same formulation as K20 above, but with just 2% Knockout Serum Replacer), and changed daily. Differentiating hPSC-CMs from replated progenitors in this protocol beat by day 8 to 12.

The test system of experiment [5] is hPSC-CM sheets from replated progenitors. Briefly: Video edge detection / beating analysis of cardiomyocyte sheets. As for the experimental part:
For quantification of spatial regularity and graphical presentation of time averaged beating in microtissue from the H9-cTnT-GFP (FIGS. 9A, C) or 19-9-11 (FIG. 9B) cell lines, .avi video files of low-powered (2.5× magnification) fields were recorded at a resolution of 1268×720 and a frame rate of 20/second. These videos were exported into a series of sequential .tiff files using Adobe Premiere, and then analyzed in MATLAB using previously described coding algorithms (Huebsch et al., 2015). Calculations of beat rate (before and after ivrabradine, […] for 2 hours, Sigma) were performed manually in the 19-9-11 cell line and multifocal patterns in untreated progenitor-derived sheets were represented as the average rate of beating for all foci present in a field.

As for polyinosinic-polycytidylic acid [pI:C], in the experiment on hPSC-CMs [1], the yield of cardiomyocytes result was “more than double the yield”. Also, in the experiment with hPSC-CMs [2] (comparable for pI:C-treated and untreated progenitors, hES and hiPS cell lines), the “purity of cardiomyocytes marked by cardiac troponin T (cTnT) expression” value is given as 80-95%. The “percentage of mlc2v+/cTnT+ hPSC-CMs” value with hPSC-CMs [2] (day 30) is “markedly increased”. In the experiment with hPSC-CMs [3], the “basal oxygen consumption rate” value is recorded as “approximately 2 fold” and the “maximal oxygen consumption rate” value was “approximately 2 fold”. The “increase in yield of cardiomyocytes” value in the experiment on hPSC-CMs [4] (replated at high reseeding density) amounted to 4 fold. Also, the “increase in yield of cardiomyocytes” value in the experiment with hPSC-CMs [4] (replated at lower density) stood at 6 fold. Further, the “contraction pattern of cell sheets from dissociated progenitors” value in experiment [5] (primed progenitors) was “highly organized, propagating waves of contraction”. Also, in experiment [5] (sheets from primed relative to untreated progenitors), the beat angle range entry is reported as “lower range”.
